From US8637670B2, “Imidazo [4,5-C]quinoline derivatives and their use in the treatment of tumors and/or inflammation” (Piramal Enterprises Limited, priority 2009, dated 2014) come the findings set out here.

Bounds are passed on as bounds.

Assay [1] has as its system HCT116. The assay is described as follows: Cytotoxicity, propidium iodide assay, HCT116. The format is cell-based. Particulars: Homo sapiens, HCT-116; Colon, HCT116, 48 hours treatment; read-out: IC50, C4a (HCT116). The protocol: (§1) The assay was designed as in the reference, Anticancer Drugs, 2002, 13, 1-8, the disclosure of which is incorporated by reference for the teaching of the assay.
(§2) Cells from cell lines as mentioned in the table given below were seeded at a density of 3000 cells/well in a white opaque 96-well plate. Following incubation at 37° C./5% CO2 for a period of 18-24 hours, the cells were treated with various concentrations (stock solution was prepared in DMSO and subsequent dilutions were made in media as per ATCC guidelines) of the compounds of Example 1-40 was for a period of 48 hours. At the end of treatment, the spent culture medium was discarded, the cells were washed with 1×PBS and 200 μl of 7 μg/ml propidium iodide was added to each well. The plates were frozen at −70° C. for at least 24 hours. For analysis, the plates were brought to RT, allowed to thaw and were read in PoleStar fluorimeter with the fluorescence setting. The percentage of viable cells in the non-treated set of wells was considered to be 100 and the percentage viability following treatment was calculated accordingly. IC50 values were calculated from graphs plotted using these percentages. Table 4 depicts the IC50 values of compounds of Example 1-40 in individual cell lines.
(§3) The abbreviations for the Cell Lines as used in Table 4 are: […]

In assay [2] the test system is A549. The assay is described as follows: Cytotoxicity, propidium iodide assay, A549. The format is cell-based. The note with it: Homo sapiens; Lung, A549, 48 hours treatment; read-out: IC50, C1a (A549). The protocol: as §1, §2, §3
The test system of assay [3] is PANC 1. The assay is described as follows: Cytotoxicity, propidium iodide assay, PANC 1. It is filed as cell-based. Particulars: Homo sapiens; Pancreatic, PANC 1, 48 hours treatment; read-out: IC50, C5a (PANC 1). The protocol:
as §1, §2, §3

Assay [4] relates to IL-6. The assay is described as follows: Human monocyte assay, LPS-stimulated IL-6 (ELISA). The format is cell-based. Particulars: human monocytes, 1 μg/ml LPS, 5 hours. The protocol:
The assay was designed as in the reference, Physiol. Res., 2003, 52, 593-598, the disclosure of which is incorporated by reference for the teaching of the assay.
Peripheral blood mononuclear cells (hPBMC) were harvested from human blood and suspended in RPMI 1640 culture medium containing 10% FCS, 100 U/mL penicillin and […] streptomycin (assay medium). Monocytes in the hPBMCs were counted using a Coulter Counter following which the cells were resuspended at 2×10^5 monocytes/mL. A cell suspension containing 2×10^4 monocytes was aliquoted per well of a 96-well plate. Subsequently, the hPBMCs were incubated for 4-5 hours at 37° C. under 5% CO2 (During the incubation, the monocytes adhered to the bottom of 96-well plastic culture plate). Following the incubation, the non-adherent lymphocytes were washed with assay medium and the adherent monocytes re-fed with assay medium. After a 48-hour incubation period (37° C., 5% CO2), monocytes were pretreated with various concentrations of compounds of Example 1-40 (prepared in DMSO) or vehicle (0.5% DMSO) for 30 minutes and stimulated with 1 μg/ml LPS (Escherchia coli 0111:B4, Sigma Chemical Co., St. Louis, Mo.). The incubation was continued for 5 hours at 37° C., 5% CO2. Supernatants were harvested, assayed for IL-6 and TNF-α by ELISA as described by the manufacturer (BD Biosciences, USA). Dexamethasone (10 μM) was used as standard for this assay. The 50% inhibitory concentration (IC50) values were calculated by a nonlinear regression method. In all experiments, a parallel plate was run to ascertain the toxicity of compounds of Example 1-40. The toxicity was determined using the MTS assay as described in Am. J. Physiol. Cell Physiol., 2003, 285, C813-C822.
For orientation: ELISA stands for enzyme-linked immunosorbent assay.

The subject of assay [5] is A2780. The assay is described as follows: Cytotoxicity, propidium iodide assay, A2780. The note with it: Homo sapiens; Ovarian, A2780, 48 hours treatment; read-out: IC50, C3a (A2780). It is filed as cell-based. The protocol: as §1, §2, §3
The subject of assay [6] is PC3. The assay is described as follows: Cytotoxicity, propidium iodide assay, PC3. The format is cell-based. Particulars: Homo sapiens, PC-3; Prostate, PC3, 48 hours treatment; read-out: IC50, C2a (PC3). The protocol: as §1, §2, §3
Assay [7] deals with U 87 MG. The assay is described as follows: Cytotoxicity, propidium iodide assay, U 87 MG. It is filed as cell-based. The note with it: Homo sapiens, Glioblastoma, 48 hours treatment, read-out: IC50, C7b (U 87 MG). The protocol:
as §1, §2, §3

Assay [8] concerns H460. The assay is described as follows: Cytotoxicity, propidium iodide assay, H460. It is filed as cell-based. Particulars: Homo sapiens, NCI-H460; Lung, H460, 48 hours treatment; read-out: IC50, C1b (H460). The protocol: as §1, §2, §3
Assay [9] addresses T1, PI3Kα kinase (Homo sapiens, UniProt P42336).
T1 construct: purchased Millipore, USA
The assay is described as follows: PI3Kα assay (32P incorporation into phosphatidylinositol, TLC densitometry). It is filed as biochemical. The note with it: At 100 nM. The protocol:
The assay was designed as in the reference, Cell, 2006, 125, 733-47 (Supplemental Data), the disclosure of which is incorporated by reference for the teaching of the assay.
The kinase reaction was carried out in a 25 μL volume in a 1.5 mL microcentrifuge tube. The reaction mixture consisted of kinase buffer (10 mM Hepes, pH 7.5, 50 mM MgCl2), 20 ng PI3Kα kinase (Millipore, USA), 12.5 μg phosphatidylinositol (PI), 10 μM ATP and 1 μCi ^32γ P dATP. Compounds of Example 1-40 were added at concentrations (stock solution was prepared in DMSO and subsequent dilutions were made in kinase buffer) as mentioned in the table. The reaction mixture was incubated at 30° C. for 20 minutes and was terminated by adding 1:1 mixture of MeOH and chloroform. The tube contents were mixed on a vortex mixer and centrifuged at 10000 rpm for 2 minutes. 10 μL of the organic (lower) phase was spotted on to a TLC plate (silica, mobile phase: n-propanol and 2 M glacial acetic acid in 65:35 ratio). The plates were dried and exposed to an X-ray film. The bands appearing as a result of ^32γ P incorporation in PI were quantitated using the QuantityOne (BioRad, USA) densitometry program. PI-103 (Calbiochem, USA) was used as a standard.

For assay [10], the system named is U 373. The assay is described as follows: Cytotoxicity, propidium iodide assay, U 373. The format is cell-based. Particulars: Homo sapiens, U373 MG; Glioblastoma, U 373, 48 hours treatment; read-out: IC50, C7a (U 373). The protocol: as §1, §2, §3
The test system of assay [11] is OVCAR 3. The assay is described as follows: Cytotoxicity, propidium iodide assay, OVCAR 3. It is filed as cell-based. The note with it: Homo sapiens; Ovarian, OVCAR 3, 48 hours treatment; read-out: IC50, C3b (OVCAR 3). The protocol: as §1, §2, §3

T1 sequence (P42336 whole entry): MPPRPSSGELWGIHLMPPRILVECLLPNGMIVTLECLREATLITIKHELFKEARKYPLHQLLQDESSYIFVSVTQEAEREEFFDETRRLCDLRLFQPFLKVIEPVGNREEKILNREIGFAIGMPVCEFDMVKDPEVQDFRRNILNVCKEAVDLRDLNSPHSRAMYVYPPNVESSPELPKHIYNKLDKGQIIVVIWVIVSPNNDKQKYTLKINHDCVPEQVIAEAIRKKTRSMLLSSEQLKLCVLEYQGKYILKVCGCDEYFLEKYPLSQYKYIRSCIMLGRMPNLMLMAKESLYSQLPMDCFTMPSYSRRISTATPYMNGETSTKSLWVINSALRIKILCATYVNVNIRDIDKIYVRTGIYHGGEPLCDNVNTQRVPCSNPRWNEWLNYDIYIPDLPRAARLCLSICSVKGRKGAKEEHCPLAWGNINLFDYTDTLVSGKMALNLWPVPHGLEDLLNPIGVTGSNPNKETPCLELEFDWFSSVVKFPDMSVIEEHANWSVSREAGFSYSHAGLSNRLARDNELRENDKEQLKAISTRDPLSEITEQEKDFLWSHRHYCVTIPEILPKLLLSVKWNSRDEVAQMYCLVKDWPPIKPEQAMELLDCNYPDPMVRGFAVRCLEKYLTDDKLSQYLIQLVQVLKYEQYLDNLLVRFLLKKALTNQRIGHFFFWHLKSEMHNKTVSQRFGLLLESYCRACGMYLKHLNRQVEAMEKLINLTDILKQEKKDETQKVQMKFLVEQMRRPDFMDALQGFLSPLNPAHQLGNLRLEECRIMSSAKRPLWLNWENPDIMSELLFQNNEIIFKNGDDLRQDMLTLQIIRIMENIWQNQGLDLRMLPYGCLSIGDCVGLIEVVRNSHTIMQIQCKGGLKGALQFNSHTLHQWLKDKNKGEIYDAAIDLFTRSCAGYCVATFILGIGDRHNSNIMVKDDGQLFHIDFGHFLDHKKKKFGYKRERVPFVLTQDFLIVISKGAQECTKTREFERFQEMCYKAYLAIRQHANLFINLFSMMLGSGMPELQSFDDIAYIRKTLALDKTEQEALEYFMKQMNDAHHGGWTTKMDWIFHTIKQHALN
T1 sequence (P27986 whole entry partner): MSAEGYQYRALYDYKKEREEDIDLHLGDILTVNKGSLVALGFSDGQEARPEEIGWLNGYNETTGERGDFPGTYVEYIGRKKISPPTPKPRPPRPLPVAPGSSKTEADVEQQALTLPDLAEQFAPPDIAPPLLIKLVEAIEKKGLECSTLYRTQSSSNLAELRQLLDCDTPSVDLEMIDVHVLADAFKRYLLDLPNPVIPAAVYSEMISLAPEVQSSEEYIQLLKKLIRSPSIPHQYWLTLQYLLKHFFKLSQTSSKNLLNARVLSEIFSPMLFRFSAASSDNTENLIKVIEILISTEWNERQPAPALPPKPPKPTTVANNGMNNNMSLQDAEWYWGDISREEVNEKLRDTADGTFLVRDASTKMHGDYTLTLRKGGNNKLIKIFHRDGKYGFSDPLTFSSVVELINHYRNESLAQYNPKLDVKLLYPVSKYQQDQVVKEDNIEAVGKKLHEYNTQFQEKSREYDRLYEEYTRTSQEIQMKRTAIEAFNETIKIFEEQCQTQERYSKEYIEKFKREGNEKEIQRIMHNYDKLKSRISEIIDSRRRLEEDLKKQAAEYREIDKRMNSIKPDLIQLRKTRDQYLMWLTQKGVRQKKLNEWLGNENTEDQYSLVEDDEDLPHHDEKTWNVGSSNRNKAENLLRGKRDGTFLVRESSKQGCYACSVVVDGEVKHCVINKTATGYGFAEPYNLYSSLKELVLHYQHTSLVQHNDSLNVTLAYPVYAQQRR

One may read the IC50 as the midpoint of a concentration-inhibition curve. Take `CC(C)(C#N)c1ccc(-n2c(=O)n(S(=O)(=O)c3cccs3)c3cnc4ccc(Br)cc4c32)cc1` [Example 9, 2-(4-(8-Bromo-2-oxo-3-(thiophen-2-ylsulfonyl)-2,3-dihydro-1H-imidazo[4,5-c]quinolin-1-yl)phenyl)-2-methylpropanenitrile]: the IC50 in assay [1] is more than 3000 nM; in [2] it was 1000 to 3000 nM; in [3], more than 3000 nM; in [4] it was 10000 to 30000 nM; in assay [5], not above 1000 nM.

The term inhibition denotes how much of the control response was suppressed. For the compound `CC(C)(C#N)c1ccc(-n2c(=O)n(S(=O)(=O)c3cccc(C(F)(F)F)c3)c3cnc4ccc(Br)cc4c32)cc1` [Example 13, 2-(4-(8-Bromo-2-oxo-3-(3-(trifluoromethyl)phenylsulfonyl)-2,3-dihydro-1H-imidazo[4,5-c]quinolin-1-yl)phenyl)-2-methylpropanenitrile], the IC50 in assay [1], in [2], in [6], in assay [7], in [8] and in assay [10] was more than 3000 nM throughout. In addition, the IC50 in assay [11] was more than 3000 nM. In addition, the inhibition at 0.1 µM in assay [9] is 10 to 50%.

Take `CC(C)(C#N)c1ccc(-n2c(=O)n(S(=O)(=O)c3cccc4cccnc34)c3cnc4ccc(Br)cc4c32)cc1` [Example 11, 2-(4-(8-Bromo-2-oxo-3-(quinolin-8-ylsulfonyl)-2,3-dihydro-1H-imidazo[4,5-c]quinolin-1-yl)phenyl)-2-methylpropanenitrile]: the half-maximal inhibitory concentration (IC50) in assay [1] is more than 3000 nM; in [2], more than 3000 nM; in [3], more than 3000 nM; in assay [4], more than 30000 nM; in [5] it was more than 3000 nM.

Regarding `CC(=O)n1c(=O)n(-c2ccc(C(C)(C)C#N)cc2)c2c3cc(Cl)ccc3ncc21` [Example 36, 2-(4-(3-Acetyl-8-chloro-2-oxo-2,3-dihydro-1H-imidazo[4,5-c]quinolin-1-yl)phenyl)-2-methylpropanenitrile], the IC50 was more than 3000 nM in [1]; 1000 to 3000 nM in assay [2]; more than 3000 nM in [6]; more than 3000 nM in assay [7]; not above 1000 nM in assay [8]; more than 3000 nM in assay [10]. Also, the IC50 in assay [11] is more than 3000 nM. In assay [9], this compound displayed an inhibition at 0.1 µM of 10 to 50%.

In the case of `Cc1ccc(S(=O)(=O)n2c(=O)n(-c3ccc(C(C)(C)C#N)cc3)c3c4cc(Br)ccc4ncc32)cc1F` [Example 5, 2-(4-(8-Bromo-3-(3-fluoro-4-methylphenylsulfonyl)-2-oxo-2,3-dihydro-1H-imidazo[4,5-c]quinolin-1-yl)phenyl)-2-methylpropanenitrile], the IC50 was more than 3000 nM in assay [1]; 1000 to 3000 nM in assay [2]; 1000 to 3000 nM in [6]; 1000 to 3000 nM in assay [7]; 1000 to 3000 nM in assay [8]; more than 3000 nM in assay [10]. In assay [11], the IC50 was more than 3000 nM.

`Cc1ccc([N+](=O)[O-])cc1S(=O)(=O)n1c(=O)n(-c2ccc(C(C)(C)C#N)cc2)c2c3cc(Br)ccc3ncc21` [Example 4, 2-(4-(8-Bromo-3-(2-methyl-5-nitrophenylsulfonyl)-2-oxo-2,3-dihydro-1H-imidazo[4,5-c]quinolin-1-yl)phenyl)-2-methylpropanenitrile]: the IC50 in [1] was more than 3000 nM; in assay [2] it was 1000 to 3000 nM; in assay [6], 1000 to 3000 nM; in [7] it was 1000 to 3000 nM; in [8] it was 1000 to 3000 nM; in assay [10], more than 3000 nM. Further, the IC50 in [4] is 1000 to 10000 nM; in assay [11], more than 3000 nM.

Turning to `CC(C)(C#N)c1ccc(-n2c(=O)n(S(=O)(=O)c3cccc(Br)c3)c3cnc4ccc(Br)cc4c32)cc1` [Example 15, 2-(4-(8-Bromo-3-(3-bromophenylsulfonyl)-2-oxo-2,3-dihydro-1H-imidazo[4,5-c]quinolin-1-yl)phenyl)-2-methylpropanenitrile], the IC50 is 1000 to 3000 nM in [1]; more than 3000 nM in [2]; more than 3000 nM in assay [3]; 1000 to 10000 nM in assay [4]; more than 3000 nM in assay [5].
